# Experiments:
# [1] = Solubilization by fixing the micelle structure: drug concentration in the clear neutral liquid; type: physicochemical; details: for clear liquid obtained: no alkali; for clear liquid obtained / concentration of AP-1067 in clear neutral liquid containing solubilized drug: 45° C.; for concentration of AP-1067 in clear neutral liquid containing solubilized drug: pH adjusted to neutral
# Protocol: (§1) About 10 mg of AP-1067 was dispersed into 1 mL of water. An aqueous solution of sodium hydroxide was added thereto to adjust the solution to pH=13 or above. The suspension was heated up to 45° C. to obtain a clear alkali aqueous liquid containing solubilized AP-1067 wherein a micelle of AP-1067 was formed. (AP-1067 concentration: about 10 mg/mL)
# (§2) 40 mg of sodium dodecyl sulfate (SDS) was added to the alkali aqueous liquid to fix the formed micelle structure. Then, an aqueous solution of hydrochloric acid was added dropwise thereto and its pH was adjusted to neutral to obtain a clear neutral liquid containing slubilized AP-1067 wherein the micelle of AP-1067 existed in the fixed manner. The concentration of AP-1067 at that time was 9.1 mg/mL.
# as §1, with “solution of” for “liquid containing solubilized”
# as §2, with “100 mg” for “40 mg”, “of Polysorbate 80” for “of sodium dodecyl sulfate (SDS)”, “aqueous solution” for “aqueous liquid”, “containing solubilized” for “containing slubilized”, “was 10.3” for “was 9.1”
# 10 mg of AP-1067 and 40 mg of SDS were dispersed into 1 mL of water. The suspension was heated up to 45° C., and the ultrasonic treatment was conducted for 1.5 hours.
# 10 mg of AP-1067 and 100 mg of Polysorbate 80 were dispersed into 1 mL of water. The suspension was heated up to 45° C., and the ultrasonic treatment was conducted for 1.5 hours.
# 10 mg of APC0576 and 83 mg of cetylpyridinium chloride monohydrate were dispersed and dissolved into 1 mL of an aqueous solution of 1.5 mol/L hydrochloric acid. The suspension was heated up to 50° C., and the ultrasonic treatment was conducted thereto to obtain a clear acidic aqueous liquid containing solubilized APC0576 wherein a micelle of the poorly-soluble drug APC0576 existed in the fixed manner. (APC0576 concentration: about 10 mg/mL)
# An aqueous solution of 10 mol/L sodium hydroxide was added dropwise to the acidic aqueous liquid to adjust its pH to nearly neutral to obtain about 7 mg/mL of a clear liquid containing solubilized APC0576 wherein the micelle of APC0576 existed in the fixed manner. (see FIG. 3)
# 10 mg of APC0576 and 85 mg of cetylpyridinium chloride monohydrate were dissolved into 1 mL of water. The suspension was heated up to 50° C., and the ultrasonic treatment was conducted for 1.5 hours. […] (see FIG. 3)
# [2] = Solubility in water at room temperature
"clear solubilized solution obtained ([1]; Comparative Example 3: 10 mg drug and 85 mg cetylpyridinium chloride monohydrate in 1 mL water, no acid, 50° C., ultrasonic 1.5 hours)","concentration of clear liquid containing solubilized APC0576 ([1]; Example 3: 83 mg cetylpyridinium chloride monohydrate, 1.5 mol/L hydrochloric acid, 50° C., ultrasonic, pH adjusted to nearly neutral)",SMILES,"clear liquid obtained ([1]; Comparative Example 1: 10 mg drug and 40 mg SDS in 1 mL water, ultrasonic 1.5 hours)","clear liquid obtained ([1]; Comparative Example 2: 10 mg drug and 100 mg Polysorbate 80 in 1 mL water, ultrasonic 1.5 hours)","concentration of AP-1067 in clear neutral liquid containing solubilized drug ([1]; Example 1: micelle formed at pH=13 or above, fixed with 40 mg SDS) [µg/mL]","concentration of AP-1067 in clear neutral liquid containing solubilized drug ([1]; Example 2: micelle formed at pH=13 or above, fixed with 100 mg Polysorbate 80) [µg/mL]",solubility [2] [µg/mL]
,,"Cl.NS(=O)(=O)c1ccc(/C=C/CN2CCC(=C3c4ccccc4C=Cc4ccccc43)CC2)cc1 [AP-1067, (4-(5H-dibenzo[a,d]cyclohepten-5-ylidene)-1-[3-[4-sulfamoylphenyl]-2(E)-propenyl]-piperidine, monohydro-chloride)]",could not be obtained,could not be obtained,9100,10300,~30
could not be obtained,about 7 mg/mL,"CC1(C)C[C@@H]1C(=O)Nc1ccc(Oc2ccc(NC(=O)[C@H]3CC3(C)C)cn2)cc1 [APC0576, 5-(((S)-2,2-dimethyl-cyclopropancarbonyl)amino)-2-(4-(((S)-2,2-dimethylcyclopropancarbonyl)amino)phenoxy)pyridine]",,,,,~1.6

# Reference: patent US20060140991A1, “Pharmaceutical preparations having an improved solubility” (AJINOMOTO CO. INC, priority 2003, published 2006)
